# Measured values taken from patent US20240245806A1, “TREATMENT OF NEURODEGENERATIVE DISEASE USING CSA- AND INDY-TYPE COMPOUNDS” (BROWN UNIVERSITY, priority 2021, published 2024).
# “Also recorded” adds a separate entry of the source.
# Key:
# [1] = system: zebrafish embryos and larvae; test: Developmental exposure (2-3, 3-4 or 4-5 dpf) of zebrafish to modulators of calcineurin signaling, behavior imaged at 5 dpf; format: in vivo; settings: for early activity (first hour): imaged 5 dpf
# Method: Zebrafish. Adult wild type zebrafish (Danio rerio) are maintained at Brown University as a genetically-diverse outbred strain in a mixed male and female population. Zebrafish embryos were collected and grown to larval stages as described previously. Thorn et al., Sci Rep 9, 13989 (2019). Embryos from 0-3 days post-fertilization (dpf) and larvae from 3-5 dpf were kept on a 12 hour light/12 hour dark cycle at 28.5° C. in 2 L culture trays with egg water, containing 60 mg/L sea salt (Instant Ocean) and 0.25 mg/L methylene blue in deionized water. Zebrafish embryos and larvae were randomly assigned to different experimental groups prior to experimental manipulation. The sex of embryos and larvae cannot be determined at such early stages because zebrafish use elusive polygenic factors for sex determination, and both males and females have juvenile ovaries between 2.5 and 4 weeks of development. Liew et al., Brief Funct Genomics 13(2), 172-187 (2014). Zebrafish larvae were imaged at 5 dpf when they are approximately 4 mm long, display a range of locomotor behaviors and consume nutrients available in the yolk sac. Clift et al., Zebrafish 11(5), 455-461 (2014).
# Pharmacological treatments. Zebrafish embryos and larvae were treated with 10 μM CsA (cyclosporin A, Enzo Life Sciences), 1 μM FK506 (tacrolimus, Enzo Life Sciences), 1 μM rapamycin (Santa Cruz Biotechnology), 5 μM proINDY (Tocris Bioscience) or co-treatments of either 10 μM CsA+5 μM proINDY or 1 μM FK506+5 μM proINDY. […] Clift et al., Behav Brain Res, 282, 117-124 (2015). […] Robinson et al., J Appl Toxicol 37(12), 1438-1447 (2017). […] All administered compounds were diluted in egg water from 1000× stocks dissolved in dimethyl sulfoxide (DMSO). The corresponding DMSO concentration (1 μl DMSO/ml egg water) was used as a vehicle control. Embryos and larvae were treated during one of the following developmental stages: 2-3, 3-4, or 4-5 dpf. The embryos and larvae were treated in 10 cm Petri dishes for 24 hours, rinsed three times with egg water, and then transferred to new Petri dishes with egg water. Larvae that were treated from 4-5 dpf were rinsed and kept in egg water for 3 hours prior to imaging, typically from 10 am to 1 pm. All treatment groups were imaged at 5 dpf in egg water. For imaging, larvae were transferred to white 96-well ProxiPlates (PerkinElmer, 6006290) and were imaged for 3 hours, typically from 1-4 pm (FIG. 12).
# Imaging of zebrafish larvae. Zebrafish larvae were imaged in a 384-well imaging system as described previously. Thorn et al., Sci Rep 9, 13989 (2019). Briefly, four 96-well ProxiPlates were placed on a glass stage inside a temperature-controlled cabinet, set at 28.5° C. The upper shelf of the cabinet holds a high-resolution camera (18-megapixel Canon EOS Rebel T6 with an EF-S 55-250 mm f/4.0-5.6 IS zoom lens), connected to a continuous power supply (Canon ACK-E10 AC Adapter) and controlled by a laptop computer. Images are acquired using Canon's Remote Capture software (EOS Utility, version 3), which is included with the camera. Every 6 seconds, the camera acquires a high-resolution image of larvae in the microplates (FIG. 12). Two small speakers (OfficeTec USB Computer Speakers Compact 2.0 System) are located speaker-side down on the glass stage. Speakers were connected by USB to the laptop computer and set to maximum volume (85 dBA).
# Behavioral assay. Larval behaviors were imaged for 3 hours, as described previously. Thorn et al., Sci Rep 9, 13989 (2019). […] The PowerPoint started with a light background for 60 minutes without visual or acoustic stimuli, followed by 80 minutes with visual stimuli, 10 minutes without stimuli, and 30 minutes with acoustic stimuli (FIG. 12). Larvae were not exposed to visual stimuli and acoustic stimuli at the same time. The visual stimuli consisted of a series of lines that moved upwards or downwards in the microplates, in a horizontal plane. […]
# [2] = system: zebrafish larvae; test: Acute exposure of 5 dpf zebrafish larvae to modulators of calcineurin signaling, automated analysis of behavior; format: in vivo, Danio rerio; settings: vs DMSO
# Method: Zebrafish larvae were treated at 5 dpf with various modulators of calcineurin signaling, starting 3 hours before imaging. The larvae were then imaged for a total of 3 hours using a behavioral assay with various visual and acoustic stimuli (FIG. 6). The behavioral assay started with a 1-hour period without stimuli, followed by 80 minutes with visual stimuli, 10 minutes without visual or acoustic stimuli, and 30 minutes with acoustic stimuli. Values of activity (% move) and position (% up) were averaged in individual larvae during 10-minute periods, for a total of 18 periods. These values were subsequently averaged between larvae in the same treatment group. We examined a total of 10 treatment groups. For clarity, only 3 treatment groups were graphed (FIG. 6), but all 10 treatment groups were analyzed in detail as shown in subsequent figures. […] The assay provides quantitative information on activity, visually-guided behaviors and acoustic startle responses.
# To determine if larval zebrafish behavior is affected by modulation of calcineurin signaling, we imaged 5 day-old larvae in the following 10 treatment groups: 10 μM cyclosporine A (CsA), 1 μM tacrolimus (FK506), 5 or 10 μM proINDY, a combination of CsA+5 or 10 μM proINDY, or a combination of FK506+5 or 10 μM proINDY, DMSO as a vehicle control, and 1 μM rapamycin as a control for target specificity. Rapamycin and FK506 are both macrolide immunosuppressants with similar structures, however, rapamycin affects Target of Rapamycin (TOR) signaling instead of calcineurin signaling. Vellanki et al., Front Mol Biosci 7, 588913 (2020). The concentrations of CsA, FK506 and rapamycin were selected based on prior studies in zebrafish embryos and larvae. Clift et al., Behav Brain Res 282, 117-124 (2015). The two concentrations of proINDY, a membrane-permeable form of INDY (inhibitor of DYRK), were selected based on studies in cell lines and Xenopus embryos. Ogawa et al., Nat Commun 1, 86 (2010).
# The research project has been conducted in accordance with local and federal guidelines for ethical and humane use of animals and has been reviewed and approved by the Brown University Institutional Animal Care and Use Committee. Zebrafish (Danio rerio) embryos were collected and grown to larval stages as previously described. Thorn et al., Sci Rep 9, 13989 (2019). Adult wild-type zebrafish are maintained at Brown University as a genetically-diverse outbred strain in a mixed male and female population. Zebrafish embryos from 0-3 days post-fertilization (dpf) and zebrafish larvae from 3-5 dpf were maintained at 28.5° C. in 2 L culture trays with egg water, containing 60 mg/L sea salt (Instant Ocean) and 0.25 mg/L methylene blue in deionized water. Embryos and larvae were kept on a 12 hour light/12 hour dark cycle and were randomly assigned to different experimental groups prior to experimental manipulation. The sex of embryos and larvae cannot be determined at such early stages because zebrafish use elusive polygenic factors for sex determination, and both males and females have juvenile ovaries between 2.5 and 4 weeks of development. Zebrafish larvae were imaged at 5 dpf when the larvae display a range of locomotor behaviors and consume nutrients available in the yolk sac. Larvae are approximately 4 mm long at the 5 dpf stage.
# Cyclosporine (cyclosporin A, Enzo Life Sciences), FK506 (tacrolimus, Enzo Life Sciences), rapamycin (Santa Cruz Biotechnology) and proINDY (Tocris Bioscience) were diluted in egg water from 1000× stocks dissolved in dimethyl sulfoxide (DMSO). DMSO (1 μl/ml DMSO) was added to the single treatments and the corresponding DMSO concentration was used as a vehicle control for all solutions. Larvae were exposed at 5 dpf to treatment solutions or DMSO for a total of 6 hours. Larvae were first treated in a Petri dish for 2 hours, transferred with the treatment solution to white 96-well ProxiPlates (PerkinElmer, 6006290) for 1 hour, and then imaged in the treatment solution for 3 hours. […]
# [3] = system: transplant patients; settings: all age groups above 65; cited from earlier work
# [4] = 5 dpf acute exposure, 10 μM CsA, 1 μM FK506, 1 μM rapamycin, proINDY
compound,measurement,setting,value
"C=CC[C@@H]1/C=C(\C)C[C@H](C)C[C@H](OC)[C@H]2O[C@@](O)(C(=O)C(=O)N3CCCC[C@H]3C(=O)O[C@H](/C(C)=C/[C@@H]3CC[C@@H](O)[C@H](OC)C3)[C@H](C)[C@@H](O)CC1=O)[C@H](C)C[C@@H]2OC [FK506, tacrolimus]",startle responses (20-second interval),"[1]; all exposure groups, vs DMSO",decrease startle responses
same,OMR Blue,[1]; exposure 2-3 dpf,decrease in OMR Blue
same,OMR Green,[1]; exposure 2-3 dpf,decrease in OMR Green
same,OMR RGB,[1]; exposure 2-3 dpf,decrease in OMR RGB
same,behavioral profile,[1]; exposure 2-3 dpf,"hyperactivity, low habituation, and low optomotor responses"
same,habituation to acoustic stimuli (1 second interval),[1]; exposure 2-3 dpf,reduced larval habituation
same,startle responses (20-second interval),[1]; exposure 2-3 dpf,strongly reduced
same,early activity (first hour),[1]; exposure 2-3 dpf,hyperactivity
same,habituation to acoustic stimuli (1 second interval),[1]; exposure 3-4 dpf,reduced larval habituation
same,late activity (period 15),[1]; exposure 3-4 dpf,substantial increases in activity
same,startle responses (20-second interval),[1]; exposure 3-4 dpf,reduced
same,early activity (first hour),[1]; exposure 3-4 dpf,hyperactivity
same,OMR Fast Red,[1]; exposure 4-5 dpf,decrease in OMR Fast Red
same,OMR Green,[1]; exposure 4-5 dpf,decrease in OMR Green
same,excitability,[1]; exposure 4-5 dpf,increases in excitability
same,habituation to acoustic stimuli (1 second interval),[1]; exposure 4-5 dpf,increased larval habituation
same,late activity (period 15),[1]; exposure 4-5 dpf,substantial increases in activity
same,optomotor response (OMR),[2]; 5 dpf acute exposure,decreased optomotor responses
same,early activity (first hour of imaging),[2]; [4],increased early larval activity; also recorded: significant increase in both early and late activity
same,late activity (period 15),[2]; [4],increased activity; also recorded: significant increase in both early and late activity
same,activity,"[2]; 5 dpf acute exposure, 10 μM CsA, 1 μM FK506, proINDY 5 or 10 μM",increased activity
same,excitability (acoustic stimuli at 1-second intervals),[2]; 5 dpf acute,increase in excitability; also recorded: increased excitability
same,habituation to acoustic stimuli at 1-second intervals,[2]; 5 dpf acute,decreased habituation
same,optomotor response to red lines,"[2]; 5 dpf acute, proINDY 5 μM",decreased optomotor responses
same,development of Alzheimer's disease in treated transplant patients,[3],rarely develops
